# Measured values reported in patent US12509438B2, “Pyrazole derivative” (Aptabio Therapeutics Inc., priority 2020, dated 2025).
# Tested on: differentiated HL-60 cells
# Test: ROS production induced by PMA in HL-60 cells differentiated into neutrophil cells (L-012 luminescence)
# Format: cell-based, human
# Conditions: for inhibition at 0.5 µM: Homo sapiens, HL-60, synthetic example compounds 0.5 uM, read-out: ROS production inhibitory effect
# Text: In order to confirm an effect of the synthetic example compounds on ROS production from fibroblasts and specific substrate cells, ROS production was induced by stimulation of PMA (phorbol 12-myristate 13-acetate), TGF-β1, palmitate or high concentration-glucose, or the like for HL-60 cells (Korean Cell Line Bank), NHLF(normal human lung fibroblast, Lonza), LX-2 (human hepatic stellate cells, Sigma), ARPE19 (human retinal pigment epithelial cell, ATCC), KEL-FIB (Keloid fibroblast, ATCC) cells differentiated into neutrophil cells by treatment of DMSO, and the inhibitory effect of ROS production of the synthetic example compounds was observed under this condition.
# HL-60 cells (human leukemia cells, ATCC) was suspended in a medium comprising 1.25% DMSO (RPMI+10% FBS) and cultured under the condition of 5% CO2, 37° C. for 6 days to induce differentiation into neutrophil cells. […] Then, PMA of […] was treated in each well comprising cells and a drug to induce production of ROS, and this ROS production was measured by observing the level of luminescence of each well using 100 μM L-012.
structure (smiles),measurement,setting,value
Oc1c2c(nn1-c1ccccn1)CCCC2 [compound 1],inhibition at 0.5 µM,,< 30%
Oc1c2c(nn1-c1ccc(C(F)(F)F)cn1)CCCC2 [compound 2],inhibition at 0.5 µM,,< 30%
Oc1c2c(nn1-c1ccccn1)CN(Cc1ccccc1)CC2 [compound 3],inhibition at 0.5 µM,,50 to 70%
Oc1c2c(nn1-c1ccc(C(F)(F)F)cn1)CN(Cc1ccccc1)CC2 [compound 4],inhibition at 0.5 µM,,30 to 50%
Oc1c2c(nn1-c1ccccn1)CN(Cc1ccc(F)cc1)CC2 [compound 6],inhibition at 0.5 µM,,30 to 50%
Cc1ccc(CN2CCc3c(nn(-c4ccccn4)c3O)C2)cc1 [compound 7],inhibition at 0.5 µM,,30 to 50%
N#Cc1ccc(CN2CCc3c(nn(-c4ccccn4)c3O)C2)cc1 [compound 8],inhibition at 0.5 µM,,50 to 70%
Oc1c2c(nn1-c1ccccn1)CN(Cc1cc(F)cc(F)c1)CC2 [compound 9],inhibition at 0.5 µM,,50 to 70%
Oc1c2c(nn1-c1ccccn1)CN(Cc1cccc(C(F)(F)F)c1)CC2 [compound 10],inhibition at 0.5 µM,,30 to 50%
CCN1CCc2c(nn(-c3ccccn3)c2O)C1 [compound 15],inhibition at 0.5 µM,,< 30%
C#CCN1CCc2c(nn(-c3ccccn3)c2O)C1 [compound 16],inhibition at 0.5 µM,,< 30%
O=C(NC1CCCCC1)N1CCc2c(nn(-c3ccccn3)c2O)C1 [compound 23],inhibition at 0.5 µM,,< 30%
O=S(=O)(c1ccccc1)N1CCc2c(nn(-c3ccccn3)c2O)C1 [compound 26],inhibition at 0.5 µM,,50 to 70%
O=C(OCc1ccc([N+](=O)[O-])cc1)N1CCc2c(nn(-c3ccccn3)c2O)C1 [compound 32],inhibition at 0.5 µM,,30 to 50%
Oc1c2c(nn1-c1ccccn1)CCN(Cc1ccccc1)C2 [compound 34],inhibition at 0.5 µM,,30 to 50%
Oc1c2c(nn1-c1ccc(Cl)cn1)CN(Cc1ccccc1)CC2 [compound 35],inhibition at 0.5 µM,,50 to 70%
O=C(O)c1ccc(-n2nc3c(c2O)CCN(Cc2ccccc2)C3)cc1 [compound 36],inhibition at 0.5 µM,,> 70%
Oc1c2c(nn1-c1ccc(Br)cc1)CN(Cc1ccccc1)CC2 [compound 37],inhibition at 0.5 µM,,> 70%
Oc1c2c(nn1-c1ccccc1)CN(Cc1ccccc1)CC2 [compound 38],inhibition at 0.5 µM,,> 70%
Oc1c2c(nn1-c1ccc(C(F)(F)F)cn1)CCN(Cc1ccccc1)C2 [compound 39],inhibition at 0.5 µM,,< 30%
Oc1c2c(nn1-c1ccccc1)CCN(Cc1ccccc1)C2 [compound 40],inhibition at 0.5 µM,,50 to 70%
Oc1c2c(nn1-c1ccc(Br)cc1)CCN(Cc1ccccc1)C2 [compound 41],inhibition at 0.5 µM,,50 to 70%
Oc1c2c(nn1-c1ccccc1Cl)CCN(Cc1ccccc1)C2 [compound 42],inhibition at 0.5 µM,,< 30%
Oc1c2c(nn1-c1ccc(C(F)(F)F)cn1)CCN(Cc1cccc(C(F)(F)F)c1)C2 [compound 50],inhibition at 0.5 µM,,30 to 50%
N#Cc1ccc(CN2CCc3nn(-c4ccccn4)c(O)c3C2)cc1 [compound 75],inhibition at 0.5 µM,,50 to 70%
N#Cc1ccc(CN2CCc3nn(-c4ccc(C(F)(F)F)cn4)c(O)c3C2)cc1 [compound 76],inhibition at 0.5 µM,,30 to 50%
Oc1c2c(nn1-c1ccccn1)CCN(Cc1cccc(C(F)(F)F)c1)C2 [compound 77],inhibition at 0.5 µM,,30 to 50%
Oc1c2c(nn1-c1ccc(C(F)(F)F)cn1)CCN(Cc1cccc(C(F)(F)F)c1)C2 [compound 78],ROS production inhibitory effect,"synthetic example compounds 0.5 uM, 0.5 µM",*** (***: 50 < <70%)
Oc1c2c(nn1-c1ccccn1)CCN(Cc1cc3ccccc3cn1)C2 [compound 79],inhibition at 0.5 µM,,50 to 70%
Oc1c2c(nn1-c1ccc(C(F)(F)F)cn1)CCN(Cc1cc3ccccc3cn1)C2 [compound 80],inhibition at 0.5 µM,,50 to 70%
O=C(O)c1ccc(-n2nc3c(c2O)CN(Cc2ccccc2)CC3)cc1 [compound 81],inhibition at 0.5 µM,,> 70%
